Test results reported in US9549932B2, “2-(morpholin-4-yl)-1,7-naphthyridines” (BAYER PHARMA AKTIENGESELLSCHAFT, priority 2014, dated 2017).
pIC50: −log10 of the molar value. Where a name gives a salt, the structure may show the parent alone. Read-outs that look alike come from different tables or passages of the source.

Biological target: full-length human ATR protein (Homo sapiens (Human), UniProt Q13535)
Test: Binding assay ATR (TR-FRET tracer displacement)
Conditions: TR-FRET
In short: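 Full-length human GST-ATR co-purified with ATRIP, pre-complexed 30 min at 22 °C with anti-GST-Tb antibody, then pre-bound with compound 10 min. Tracer A or B added (2 µl of 100 nM solution), 30 min at 22 °C.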

[1] = tracer A, read-out: ATR binding (tracer A) IC50
[2] = tracer B, read-out: ATR binding (tracer B) IC50

Sequence of full-length human ATR protein (Q13535 other isoform, or with tags, fused parts or gaps): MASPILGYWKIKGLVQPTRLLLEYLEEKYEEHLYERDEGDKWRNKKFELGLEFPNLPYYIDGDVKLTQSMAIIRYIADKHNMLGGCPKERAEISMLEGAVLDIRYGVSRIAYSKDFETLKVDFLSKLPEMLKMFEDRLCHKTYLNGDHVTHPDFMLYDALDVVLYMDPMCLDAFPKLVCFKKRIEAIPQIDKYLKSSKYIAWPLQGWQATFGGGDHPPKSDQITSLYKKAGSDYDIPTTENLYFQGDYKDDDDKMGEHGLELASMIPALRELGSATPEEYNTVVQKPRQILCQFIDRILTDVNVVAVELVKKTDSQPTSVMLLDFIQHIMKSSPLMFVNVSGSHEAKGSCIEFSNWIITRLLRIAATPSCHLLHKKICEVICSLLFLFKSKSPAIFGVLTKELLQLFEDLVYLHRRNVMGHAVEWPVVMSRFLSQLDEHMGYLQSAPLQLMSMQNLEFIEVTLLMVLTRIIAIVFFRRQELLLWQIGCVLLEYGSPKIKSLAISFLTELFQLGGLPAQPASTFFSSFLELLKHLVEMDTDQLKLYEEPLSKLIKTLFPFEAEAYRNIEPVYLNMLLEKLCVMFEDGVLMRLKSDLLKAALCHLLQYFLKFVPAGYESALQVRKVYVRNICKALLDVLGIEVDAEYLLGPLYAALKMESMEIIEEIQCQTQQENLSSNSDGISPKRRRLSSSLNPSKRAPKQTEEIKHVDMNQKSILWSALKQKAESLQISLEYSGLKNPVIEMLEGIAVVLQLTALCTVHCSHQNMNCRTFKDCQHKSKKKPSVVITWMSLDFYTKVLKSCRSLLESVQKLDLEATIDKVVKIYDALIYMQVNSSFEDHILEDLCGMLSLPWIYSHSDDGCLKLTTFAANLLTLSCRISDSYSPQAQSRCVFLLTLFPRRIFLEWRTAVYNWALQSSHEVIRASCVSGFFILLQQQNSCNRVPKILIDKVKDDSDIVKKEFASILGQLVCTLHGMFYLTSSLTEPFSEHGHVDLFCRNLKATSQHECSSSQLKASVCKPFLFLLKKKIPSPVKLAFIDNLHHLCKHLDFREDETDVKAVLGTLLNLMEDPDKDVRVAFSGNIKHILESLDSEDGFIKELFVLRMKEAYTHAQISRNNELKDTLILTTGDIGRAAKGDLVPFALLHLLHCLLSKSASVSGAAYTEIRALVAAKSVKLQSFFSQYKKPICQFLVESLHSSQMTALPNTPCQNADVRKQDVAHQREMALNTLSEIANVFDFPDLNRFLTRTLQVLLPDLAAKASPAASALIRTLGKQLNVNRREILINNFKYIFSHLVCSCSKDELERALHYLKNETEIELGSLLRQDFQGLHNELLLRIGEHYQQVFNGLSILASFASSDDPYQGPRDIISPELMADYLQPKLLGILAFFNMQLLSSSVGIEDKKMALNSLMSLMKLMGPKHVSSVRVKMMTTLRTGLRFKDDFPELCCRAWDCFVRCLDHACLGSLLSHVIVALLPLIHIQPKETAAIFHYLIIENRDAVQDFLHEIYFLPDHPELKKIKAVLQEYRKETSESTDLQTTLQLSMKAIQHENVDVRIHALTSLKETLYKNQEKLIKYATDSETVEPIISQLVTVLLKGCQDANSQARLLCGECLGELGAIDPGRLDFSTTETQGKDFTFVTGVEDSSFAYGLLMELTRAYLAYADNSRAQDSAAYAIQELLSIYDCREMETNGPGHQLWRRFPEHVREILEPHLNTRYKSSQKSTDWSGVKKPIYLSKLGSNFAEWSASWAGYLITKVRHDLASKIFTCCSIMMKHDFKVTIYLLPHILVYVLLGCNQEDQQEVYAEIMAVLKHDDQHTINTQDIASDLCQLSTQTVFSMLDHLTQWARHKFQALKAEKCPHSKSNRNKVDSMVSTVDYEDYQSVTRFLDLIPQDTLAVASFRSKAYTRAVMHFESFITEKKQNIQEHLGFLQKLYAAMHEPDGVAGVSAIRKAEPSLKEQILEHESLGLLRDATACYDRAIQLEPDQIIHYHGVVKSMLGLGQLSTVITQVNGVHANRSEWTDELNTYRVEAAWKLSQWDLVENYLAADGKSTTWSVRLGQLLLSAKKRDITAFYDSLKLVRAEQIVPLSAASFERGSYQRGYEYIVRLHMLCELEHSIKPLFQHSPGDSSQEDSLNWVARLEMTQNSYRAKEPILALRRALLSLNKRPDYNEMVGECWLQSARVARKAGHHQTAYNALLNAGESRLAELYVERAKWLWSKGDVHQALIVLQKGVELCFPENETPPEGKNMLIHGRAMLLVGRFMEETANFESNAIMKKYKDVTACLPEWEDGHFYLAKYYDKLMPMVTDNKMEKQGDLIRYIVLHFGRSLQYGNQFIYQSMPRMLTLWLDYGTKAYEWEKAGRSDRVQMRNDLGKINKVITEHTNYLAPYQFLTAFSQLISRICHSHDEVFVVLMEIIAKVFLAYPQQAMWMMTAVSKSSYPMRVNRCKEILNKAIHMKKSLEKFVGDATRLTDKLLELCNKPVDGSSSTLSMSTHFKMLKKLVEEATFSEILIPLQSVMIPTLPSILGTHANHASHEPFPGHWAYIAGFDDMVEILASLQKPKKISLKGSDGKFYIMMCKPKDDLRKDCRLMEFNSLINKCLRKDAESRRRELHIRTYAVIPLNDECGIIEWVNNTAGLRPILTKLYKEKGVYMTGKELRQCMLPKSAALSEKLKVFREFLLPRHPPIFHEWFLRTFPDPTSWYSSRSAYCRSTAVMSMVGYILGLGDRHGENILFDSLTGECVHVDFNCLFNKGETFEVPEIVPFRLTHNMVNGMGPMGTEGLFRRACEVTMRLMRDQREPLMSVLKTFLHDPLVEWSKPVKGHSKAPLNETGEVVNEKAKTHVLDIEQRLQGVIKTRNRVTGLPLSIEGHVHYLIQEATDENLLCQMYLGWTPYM
Sequence of full-length human ATR protein (Q8WXE1 other isoform, or with tags, fused parts or gaps partner): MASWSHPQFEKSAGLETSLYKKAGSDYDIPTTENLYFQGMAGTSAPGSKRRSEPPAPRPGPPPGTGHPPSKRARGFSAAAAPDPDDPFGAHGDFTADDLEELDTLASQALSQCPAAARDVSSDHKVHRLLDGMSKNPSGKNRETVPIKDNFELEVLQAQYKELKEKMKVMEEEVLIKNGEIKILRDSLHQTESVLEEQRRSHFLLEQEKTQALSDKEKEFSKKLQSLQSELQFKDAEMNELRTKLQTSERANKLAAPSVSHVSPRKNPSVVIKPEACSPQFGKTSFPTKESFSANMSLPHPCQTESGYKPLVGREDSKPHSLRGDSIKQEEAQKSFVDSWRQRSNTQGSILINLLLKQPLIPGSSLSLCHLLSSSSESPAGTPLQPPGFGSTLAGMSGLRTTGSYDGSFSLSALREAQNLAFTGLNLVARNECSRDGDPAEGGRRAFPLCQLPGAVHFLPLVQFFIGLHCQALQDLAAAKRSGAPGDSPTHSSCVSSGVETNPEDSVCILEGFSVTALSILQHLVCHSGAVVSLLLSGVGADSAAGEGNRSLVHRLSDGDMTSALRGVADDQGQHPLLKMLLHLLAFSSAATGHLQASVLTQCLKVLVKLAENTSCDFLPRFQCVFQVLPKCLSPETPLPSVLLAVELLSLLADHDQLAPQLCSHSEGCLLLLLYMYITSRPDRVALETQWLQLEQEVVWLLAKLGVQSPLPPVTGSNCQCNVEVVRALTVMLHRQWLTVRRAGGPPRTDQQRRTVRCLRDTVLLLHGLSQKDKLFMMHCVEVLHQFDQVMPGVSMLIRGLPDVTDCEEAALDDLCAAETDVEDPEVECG

Structure (SMILES) | pIC50 [1] | pIC50 [2]
C[C@@H]1COCCN1c1cc(-c2ccc(F)nc2F)c2ccnc(-c3ccn[nH]3)c2n1 [Example 228, 4-(2,6-difluoropyridin-3-yl)-2-[(3R)-3-methylmorpholin-4-yl]-8-(1H-pyrazol-5-yl)-1,7-naphthyridine] | 7.52 | –
Cc1cc(N2CCOCC2)nc2c(-c3cc[nH]n3)nccc12 [Example 20, 4-methyl-2-(morpholin-4-yl)-8-(1H-pyrazol-3-yl)-[1,7]naphthyridine hydrochloride] | 6.09 | 6.49
CS(=N)(=O)CCCOc1cc(N2CCOCC2)nc2c(-c3ccn[nH]3)nccc12 (stereo not drawn) [Example 42, 4-[3-(S-methylsulfonimidoyl)propoxy]-2-(morpholin-4-yl)-8-(1H-pyrazol-5-yl)-1,7-naphthyridine] | 6.32 | 6.27
CC(C)Oc1ncccc1-c1cc(N2CCOCC2)nc2c(-c3ccn[nH]3)nccc12 [Example 405, 2-(morpholin-4-yl)-4-[2-(propan-2-yloxy)pyridin-3-yl]-8-(1H-pyrazol-5-yl)-1,7-naphthyridine] | 6.38 | –
C[C@@H]1COCCN1c1cc(-c2ccc(F)cc2N)c2ccnc(-c3ccn[nH]3)c2n1 [Example 131, 5-fluoro-2-{2-[(3R)-3-methylmorpholin-4-yl]-8-(1H-pyrazol-5-yl)-1,7-naphthyridin-4-yl}aniline] | 7.64 | –
COc1cc(N2CCOCC2)nc2c(-c3cc[nH]n3)nccc12 [Example 44, 4-methoxy-2-(morpholin-4-yl)-8-(1H-pyrazol-3-yl)-[1,7]naphthyridine] | 6.27 | 6.49
C[C@@H]1COCCN1c1cc(-c2ccncc2F)c2ccnc(-c3ccn[nH]3)c2n1 [Example 230, 4-(3-fluoropyridin-4-yl)-2-[(3R)-3-methylmorpholin-4-yl]-8-(1H-pyrazol-5-yl)-1,7-naphthyridine] | 7.50 | –
O=C1CN(c2cc(N3CCOCC3)nc3c(-c4ccn[nH]4)nccc23)CCN1 [Example 176, 4-[2-(morpholin-4-yl)-8-(1H-pyrazol-5-yl)-1,7-naphthyridin-4-yl]piperazin-2-one] | 6.65 | –
O=S(=O)(c1ccccc1)n1c(-c2cc(N3CCOCC3)nc3c(-c4ccn[nH]4)nccc23)cc2ccccc21 [Example 355, 2-(morpholin-4-yl)-4-[1-(phenylsulfonyl)-1H-indol-2-yl]-8-(1H-pyrazol-5-yl)-1,7-naphthyridine] | 6.32 | –
C[C@@H]1COCCN1c1cc(N=S(C)(=O)c2ccccc2O)c2ccnc(-c3ccn[nH]3)c2n1 (stereo partly drawn) [Example 276, 2-(methyl-N-{2-[(3R)-3-methylmorpholin-4-yl]-8-(1H-pyrazol-5-yl)-1,7-naphthyridin-4-yl}sulfonimidoyl)phenol] | 6.63 | –
C[C@@H]1COCCN1c1cc(N2CCC[C@H]2C(N)=O)c2ccnc(-c3ccn[nH]3)c2n1 [Example 154, 1-{2-[(3R)-3-methylmorpholin-4-yl]-8-(1H-pyrazol-5-yl)-1,7-naphthyridin-4-yl}prolinamide] | 7.26 | –
C[C@@H]1COCCN1c1cc(N2CCNCC2)c2ccnc(-c3ccn[nH]3)c2n1 [Example 66, 2-[(3R)-3-methylmorpholin-4-yl]-4-(piperazin-1-yl)-8-(1H-pyrazol-5-yl)-1,7-naphthyridine] | 7.06 | –
O=C1CCCN1c1cc(N2CCOCC2)nc2c(-c3ccn[nH]3)nccc12 [Example 215, 1-[2-(morpholin-4-yl)-8-(1H-pyrazol-5-yl)-1,7-naphthyridin-4-yl]pyrrolidin-2-one] | 6.50 | –
Cc1nn(C)c(C)c1-c1cc(N2CCOC[C@H]2C)nc2c(-c3ccn[nH]3)nccc12 [Example 258, 2-[(3R)-3-methylmorpholin-4-yl]-8-(1H-pyrazol-5-yl)-4-(1,3,5-trimethyl-1H-pyrazol-4-yl)-1,7-naphthyridine] | 8.12 | –
O=c1cc(-c2cc(N3CCOCC3)nc3c(-c4ccn[nH]4)nccc23)cc[nH]1 [Example 22, 4-[2-(morpholin-4-yl)-8-(1H-pyrazol-5-yl)-1,7-naphthyridin-4-yl]pyridin-2(1H)-one] | 6.33 | –
Cc1cc(-c2cc(N3CCOC[C@H]3C)nc3c(-c4ccn[nH]4)nccc23)on1 [Example 112, 2-[(3R)-3-methylmorpholin-4-yl]-4-(3-methyl-1,2-oxazol-5-yl)-8-(1H-pyrazol-5-yl)-1,7-naphthyridine] | 8.32 | –
CCSc1cc(N2CCOCC2)nc2c(-c3ccn[nH]3)nccc12 [Example 209, 4-(ethylsulfanyl)-2-(morpholin-4-yl)-8-(1H-pyrazol-5-yl)-1,7-naphthyridine] | 6.41 | –
C[C@@H]1COCCN1c1cc(N=S2(=O)CCCC2)c2ccnc(-c3ccn[nH]3)c2n1 [Example 137, N-{2-[(3R)-3-methylmorpholin-44-yl]-8-(1H-pyrazol-5-yl)-1,7-naphthyridin-4-yl}tetrahydro-1H-1λ^4-thiophen-1-imine 1-oxide] | 7.59 | –
C[C@@H]1COCCN1c1cc(-c2cn[nH]c2)c2ccnc(-c3ccn[nH]3)c2n1 [Example 269, 2-[(3R)-3-methylmorpholin-4-yl]-4-(1H-pyrazol-4-yl)-8-(1H-pyrazol-5-yl)-1,7-naphthyridine] | 7.90 | –

Structure (SMILES) | pIC50 [1] | pIC50 [2]
c1cc2c(C3CCOCC3)cc(N3CCOCC3)nc2c(-c2cc[nH]n2)n1 [Example 60, 2-(morpholin-4-yl)-8-(1H-pyrazol-5-yl)-4-(tetrahydro-2H-pyran-4-yl)-1,7-naphthyridine] | 7.62 | 7.80
C[C@@H]1COCCN1c1cc(-c2ccnn2CCF)c2ccnc(-c3ccn[nH]3)c2n1 [Example 159, 4-[1-(2-fluoroethyl)-1H-pyrazol-5-yl]-2-[(3R)-3-methylmorpholin-4-yl]-8-(1H-pyrazol-5-yl)-1,7-naphthyridine] | 7.78 | –
Clc1ccc(-c2cc(N3CCOCC3)nc3c(-c4ccn[nH]4)nccc23)s1 [Example 299, 4-(5-chlorothiophen-2-yl)-2-(morpholin-4-yl)-8-(1H-pyrazol-5-yl)-1,7-naphthyridine] | 7.26 | –
CCC(O)(CC)c1cc(N2CCOC[C@H]2C)nc2c(-c3ccn[nH]3)nccc12 [Example 129, 3-{2-[(3R)-3-methylmorpholin-4-yl]-8-(1H-pyrazol-5-yl)-1,7-naphthyridin-4-yl}pentan-3-ol] | 7.45 | –
CC(C)n1ccc(-c2cc(N3CCOC[C@H]3C)nc3c(-c4ccn[nH]4)nccc23)n1 [Example 263, 2-[(3R)-3-methylmorpholin-4-yl]-4-[1-(propan-2-yl)-1H-pyrazol-3-yl]-8-(1H-pyrazol-5-yl)-1,7-naphthyridine] | 7.71 | –
C[C@@H]1COCCN1c1cc(OCCCN)c2ccnc(-c3ccn[nH]3)c2n1 [Example 193, 3-({2-[(3R)-3-methylmorpholin-4-yl]-8-(1H-pyrazol-5-yl)-1,7-naphthyridin-4-yl}oxy)propan-1-amine] | 6.61 | –
c1cnc2ccc(-c3cc(N4CCOCC4)nc4c(-c5ccn[nH]5)nccc34)cc2c1 [Example 384, 2-(morpholin-4-yl)-8-(1H-pyrazol-5-yl)-4-(quinolin-6-yl)-1,7-naphthyridine] | 7.05 | –
C[C@@H]1COCCN1c1cc(C2CCNCC2)c2ccnc(-c3ccn[nH]3)c2n1 [Example 251, 2-[(3R)-3-methylmorpholin-4-yl]-4-(piperidin-4-yl)-8-(1H-pyrazol-5-yl)-1,7-naphthyridine] | 7.56 | –
Nc1cccc(-c2cc(N3CCOCC3)nc3c(-c4ccn[nH]4)nccc23)c1 [Example 335, 3-[2-(morpholin-4-yl)-8-(1H-pyrazol-5-yl)-1,7-naphthyridin-4-yl]aniline] | 7.18 | –
C[C@@H]1COCCN1c1cc(-c2ccn(C3CCOCC3)n2)c2ccnc(-c3ccn[nH]3)c2n1 [Example 246, 2-[(3R)-3-methylmorpholin-4-yl]-8-(1H-pyrazol-5-yl)-4-[1-(tetrahydro-2H-pyran-4-yl)-1H-pyrazol-3-yl]-1,7-naphthyridine] | 7.17 | –
c1cc(-c2nccc3c(-c4ccsc4)cc(N4CCOCC4)nc23)[nH]n1 [Example 372, 2-(morpholin-4-yl)-8-(1H-pyrazol-5-yl)-4-(thiophen-3-yl)-1,7-naphthyridine] | 6.87 | –
CS(=O)(=O)c1ccc(-c2cc(N3CCOCC3)nc3c(-c4cc[nH]n4)nccc23)cc1 [Example 7, 4-(4-methanesulphonylphenyl)-2-(morpholin-4-yl)-8-(1H-pyrazol-3-yl)-[1,7]naphthyridine] | 7.23 | 7.58
c1cc(-c2nccc3c(-c4ccc5cc[nH]c5c4)cc(N4CCOCC4)nc23)[nH]n1 [Example 293, 4-(1H-indo1-6-yl)-2-(morpholin-4-yl)-8-(1H-pyrazol-5-yl)-1,7-naphthyridine] | 6.48 | –
c1cc(-c2cc(N3CCOCC3)nc3c(-c4ccn[nH]4)nccc23)c2cc[nH]c2c1 [Example 294, 4-(1H-indo1-4-yl)-2-(morpholin-4-yl)-8-(1H-pyrazol-5-yl)-1,7-naphthyridine] | 7.43 | –
C[C@@H]1COCCN1c1cc(-c2cc(Cl)cnc2F)c2ccnc(-c3ccn[nH]3)c2n1 [Example 229, 4-(5-chloro-2-fluoropyridin-3-yl)-2-[(3R)-3-methylmorpholin-4-yl]-8-(1H-pyrazol-5-yl)-1,7-naphthyridine] | 7.55 | –
O=S1(=Nc2cc(N3CCOCC3)nc3c(-c4ccn[nH]4)nccc23)CCCCC1 [Example 280, N-[2-(morpholin-4-yl)-8-(1H-pyrazol-5-yl)-1,7-naphthyridin-4-yl]hexahydro-1λ^4-thiopyran-1-imine 1-oxide] | 7.33 | –
CC(C)(C)OC(=O)[C@@H]1CCCN1c1cc(N2CCOCC2)nc2c(-c3ccn[nH]3)nccc12 [Example 422, tert-butyl 1-[2-(morpholin-4-yl)-8-(1H-pyrazol-5-yl)-1,7-naphthyridin-4-yl]-prolinate] | 5.65 | –
CC(C)Oc1ncccc1-c1cc(N2CCOC[C@H]2C)nc2c(-c3ccn[nH]3)nccc12 [Example 219, 2-[(3R)-3-methylmorpholin-4-yl]-4-[2-(propan-2-yloxy)pyridin-3-yl]-8-(1H-pyrazol-5-yl)-1,7-naphthyridine] | 6.88 | –
